Experimental data from US20080020421A1, “METHODS OF SCREENING AGENTS FOR CYTOTOXIC AND ANTIMICROBIAL ACTIVITY” (priority 2006, published 2008).

Tested on: HeLa-GFP cells
Assay: Fluorescent microscopy cytotoxicity assay (LD50 determination, FIG. 2)
Type: cell-based, human
Conditions: 1 mM, HeLa-GFP
Procedure: The concentration of the test compounds (μM) are shown within the figure. Horizontal bar indicates the 50% toxicity range. H2O2 (+control, 1 mM) was used as a positive control (+; 100% cytolysis) while cells treated with DMSO (1 μl; solvent for all quinones) was used as the negative (−) control.
Fluorescent microscopy cytotoxicity assays. HeLa-GFP cells were plated on 24-well plates and left overnight to adhere. Different dilutions of the quinones were then added to each well (indicated in the legend) using the same concentrations of the positive and negative controls as described in the previous assay. Cell counts were done under fluorescent microscopy to determine cytotoxicity. The status of the fluorescent GFP-nuclei and the typical morphological characteristics of cells undergoing cell death were taken into account when differentiating between dying or viable cells as previously described (Montoya et al., 2004).

Row | SMILES | cytolysis (positive control) [%]
1 | OO [Compound H2O2, H2O2] | 100

Same assay, conditions: various concentrations, cell counts under fluorescent microscopy, FIG. 2

Row | SMILES | approximate LD50 in HeLa-GFP [µM]
2 | CC1=CC(=O)c2c(O)cccc2C1=O [Compound Q1, plumbagin, reference compound] | ~3.0
3 | O=C1C=CC(=O)c2c(O)ccc(O)c21 [Compound Q3, naphthazarin, reference compound] | ~3.0

Tested on: M. avium-GFP (strain MAC104)
Assay: Toxicity assay with GFP-expressing M. avium
Conditions: 20 μg/ml, 18 h incubation, relative to untreated bacteria
Procedure: (§1) E. coli-GFP cells were grown in LB broth media while the MAC104 M. avium strain was grown in 7H9-ADC media.
(§2) Toxicity assays with GFP-expressing bacteria. E. coli was transformed with a GFP-expression plasmid that also confers tetracycline resistance was kindly provided by Dr. David Schneider (Elrod-Erickson et al., 2000). […] Both bacterial strains were grown and selected based on antibiotic resistance and GFP expression. All toxicity assays were performed using the plates and fluorometric parameters described in the previous section. Bacterial cell suspensions were seeded in a final volume of 100 μl at an optical density of 0.05 and 0.25 at 650 nm, for E. coli-GFP and M. avium-GFP, respectively. After exposure to the test compounds, assay plates were incubated at 37° C. in a humid environment to prevent dehydration in the wells. Unlike the HeLa-GFP assays, reading were performed without removing the supernatants to avoid loss of cells. Several untreated wells containing bacteria and media were used to determine the maximum level of fluorescence. Several wells containing media alone (no bacteria) were included in each assay to remove background fluorescence.
(§3) Data analysis. All compounds, including controls, were screened in triplicate. The average of the three wells that were used for the removal of the background fluorescence (wells containing water for the HeLa-GFP assays and wells containing media alone for bacteria) was subtracted from each individual well. The mean of these triplicate values for each compound was then obtained.

Row | SMILES | Percent-GFP-fluorescence after incubation with test compounds, M. avium-GFP (20 μg/ml) [%]
4 | CC1=CC(=O)c2c(O)cccc2C1=O [Compound Q1, plumbagin, reference compound] | 7.0
5 | O=C1C(c2ccccc2)=C(c2ccccc2)C(=O)c2ccccc21 [Compound Q6] | 55.0
6 | COc1ccc(CC(=O)n2nnc(C3=C(CO)C(=O)c4ccccc4C3=O)c2CO)cc1 [Compound Q30] | 96.0
7 | CCOC(=O)C1=C(CC)C(=O)c2ccccc2C1=O [Compound Q15] | 40.0
8 | CCCC12OC1(CCC)C(=O)c1ccccc1C2=O (centres unmarked) [Compound Q26] | 97.0
9 | CCOC(=O)C12OC1(CC)C(=O)c1ccccc1C2=O (centres unmarked) [Compound Q28] | 97.0
10 | CCCCC12OC1C(=O)c1ccccc1C2=O (centres unmarked) [Compound Q24] | 202.0
11 | O=C1C=CC(=O)c2c(O)cccc21 [Compound Q2] | 72.0
12 | CCOC(=O)c1ccccc1C1=C(CN(C(=O)OC(C)(C)C)C(=O)OC(C)(C)C)C(=O)c2ccccc2C1=O [Compound Q35] | 108.0
13 | O=C1C=CC(=O)c2c(O)ccc(O)c21 [Compound Q3, naphthazarin, reference compound] | 38.0
14 | CC1=CC(=O)c2ccccc2C1=O [Compound Q5, menadione, reference compound] | 69.0

Same assay, conditions: loss of GFP signal, Table 1 screen

Row | SMILES | toxicity to M. avium (in words)
15 | CC1=CC(=O)c2c(O)cccc2C1=O [Compound Q1, plumbagin, reference compound] | most toxic
16 | O=C1C=CC(=O)c2c(O)ccc(O)c21 [Compound Q3, naphthazarin, reference compound] | highly toxic
17 | CC1=CC(=O)c2ccccc2C1=O [Compound Q5, menadione, reference compound] | highly toxic

Same assay, conditions: loss of GFP signal, Table 1 screen; listed as Plumbagin

Row | SMILES | toxicity to M. avium (in words)
18 | CC1=CC(=O)c2c(O)cccc2C1=O [Compound Q1, plumbagin, reference compound] | most toxic to M. avium

Tested on: HeLa-GFP cells
Assay: HeLa-GFP fluorometric cytotoxicity assay
Conditions: 2 μg/ml, 18 h incubation, relative to untreated (DMSO) cells
Procedure: Cell culture. HeLa-GFP cells were cultured in DMEM media supplemented with 10% heat-inactivated newborn calf serum as previously described (Montoya et al., 2004). Stock cultures were prewashed twice with PBS before the treatment of trypsin for cell resuspension and subsequently re-plated at the concentration of 4,000 cells/well.
HeLa-GFP fluorometric cytotoxicity assay. All cell lines were seeded in clear-bottomed 96-well assay plates (3603, Costar, Corning Inc., Corning, N.Y.) in order to minimized background fluorescence. HeLa cells were grown in a total volume of 0.2 ml of medium and incubated overnight for proper cell attachment. The quinone compounds were then added to each well (in triplicate) and then incubated for a period of 18 hr. For the determination of fluorescence, the assay plates were then read using the Fluoroskan Ascent F1 fluorometer (Thermo Electron Corp.) set at the excitation and emission parameters of 485 and 518 nm, respectively. Since the HeLa-GFP cell line is adherent, the fluorometer was set to read from the bottom of the plate for closer proximity to the cells. Before the readings were performed, all supernatant media was removed to avoid any background interference and thus enhancing the sensitivity of the optical readings. For calibration purposes, three untreated control wells were used to determine the maximum level of fluorescence (100%). […] As a cytolysis control (complete loss of fluorescence), three wells containing cells were exposed to 0.2 ml of deionized water. These controls were then used to calculate the percent loss of GFP signal after compound exposure as determined by comparison with control wells containing cells that were not exposed to the chemical agent (see data analysis below).
Data analysis. All compounds, including controls, were screened in triplicate. The average of the three wells that were used for the removal of the background fluorescence (wells containing water for the HeLa-GFP assays and wells containing media alone for bacteria) was subtracted from each individual well. The mean of these triplicate values for each compound was then obtained. These mean values were then divided by the average obtained for maximum fluorescence (cells not treated with compound) and then multiplied by 100 to obtain the percentage values as shown in Table 1.

Row | SMILES | Percent-GFP-fluorescence after incubation with test compounds, HeLa-GFP (2 μg/ml) [%]
19 | CC1=CC(=O)c2c(O)cccc2C1=O [Compound Q1, plumbagin, reference compound] | 13.0
20 | O=C1C(c2ccccc2)=C(c2ccccc2)C(=O)c2ccccc21 [Compound Q6] | 78.0
21 | COc1ccc(CC(=O)n2nnc(C3=C(CO)C(=O)c4ccccc4C3=O)c2CO)cc1 [Compound Q30] | 84.0
22 | CCOC(=O)C1=C(CC)C(=O)c2ccccc2C1=O [Compound Q15] | 85.0
23 | CCCC12OC1(CCC)C(=O)c1ccccc1C2=O (centres unmarked) [Compound Q26] | 26.0
24 | CCOC(=O)C12OC1(CC)C(=O)c1ccccc1C2=O (centres unmarked) [Compound Q28] | 17.0
25 | CCCCC12OC1C(=O)c1ccccc1C2=O (centres unmarked) [Compound Q24] | 5.0
26 | O=C1C=CC(=O)c2c(O)cccc21 [Compound Q2] | 14.0
27 | CCOC(=O)c1ccccc1C1=C(CN(C(=O)OC(C)(C)C)C(=O)OC(C)(C)C)C(=O)c2ccccc2C1=O [Compound Q35] | 85.0
28 | O=C1C=CC(=O)c2c(O)ccc(O)c21 [Compound Q3, naphthazarin, reference compound] | 0
29 | CC1=CC(=O)c2ccccc2C1=O [Compound Q5, menadione, reference compound] | 13.0

Same assay, conditions: 20 μg/ml, 18 h incubation, relative to untreated (DMSO) cells

Row | SMILES | Percent-GFP-fluorescence after incubation with test compounds, HeLa-GFP (20 μg/ml) [%]
30 | CC1=CC(=O)c2c(O)cccc2C1=O [Compound Q1, plumbagin, reference compound] | 9.0
31 | O=C1C(c2ccccc2)=C(c2ccccc2)C(=O)c2ccccc21 [Compound Q6] | 20.0
32 | COc1ccc(CC(=O)n2nnc(C3=C(CO)C(=O)c4ccccc4C3=O)c2CO)cc1 [Compound Q30] | 47.0
33 | CCOC(=O)C1=C(CC)C(=O)c2ccccc2C1=O [Compound Q15] | 53.0
34 | CCCC12OC1(CCC)C(=O)c1ccccc1C2=O (centres unmarked) [Compound Q26] | 27.0
35 | CCOC(=O)C12OC1(CC)C(=O)c1ccccc1C2=O (centres unmarked) [Compound Q28] | 4.0
36 | CCCCC12OC1C(=O)c1ccccc1C2=O (centres unmarked) [Compound Q24] | 23.0
37 | O=C1C=CC(=O)c2c(O)cccc21 [Compound Q2] | 29.0
38 | CCOC(=O)c1ccccc1C1=C(CN(C(=O)OC(C)(C)C)C(=O)OC(C)(C)C)C(=O)c2ccccc2C1=O [Compound Q35] | 58.0
39 | O=C1C=CC(=O)c2c(O)ccc(O)c21 [Compound Q3, naphthazarin, reference compound] | 4.0
40 | CC1=CC(=O)c2ccccc2C1=O [Compound Q5, menadione, reference compound] | 22.0

Same assay, conditions: loss of GFP signal, Table 1 screen

Row | SMILES | toxicity to HeLa-GFP cells (in words)
41 | CC1=CC(=O)c2c(O)cccc2C1=O [Compound Q1, plumbagin, reference compound] | most toxic
42 | O=C1C=CC(=O)c2c(O)ccc(O)c21 [Compound Q3, naphthazarin, reference compound] | highly toxic
43 | CC1=CC(=O)c2ccccc2C1=O [Compound Q5, menadione, reference compound] | highly toxic

Same assay, conditions: loss of GFP signal, Table 1 screen; listed as Plumbagin

Row | SMILES | toxicity to HeLa-GFP cells (in words)
44 | CC1=CC(=O)c2c(O)cccc2C1=O [Compound Q1, plumbagin, reference compound] | third-most toxic to HeLa cells

Tested on: E. coli-GFP
Assay: Toxicity assay with GFP-expressing E. coli
Conditions: 20 μg/ml, 10 h incubation, relative to untreated bacteria
Procedure: as §1, §2, §3

Row | SMILES | Percent-GFP-fluorescence after incubation with test compounds, E. coli-GFP (20 μg/ml) [%]
45 | CC1=CC(=O)c2c(O)cccc2C1=O [Compound Q1, plumbagin, reference compound] | 1.0
46 | O=C1C(c2ccccc2)=C(c2ccccc2)C(=O)c2ccccc21 [Compound Q6] | 105.0
47 | COc1ccc(CC(=O)n2nnc(C3=C(CO)C(=O)c4ccccc4C3=O)c2CO)cc1 [Compound Q30] | 105.0
48 | CCOC(=O)C1=C(CC)C(=O)c2ccccc2C1=O [Compound Q15] | 80.0
49 | CCCC12OC1(CCC)C(=O)c1ccccc1C2=O (centres unmarked) [Compound Q26] | 110.0
50 | CCOC(=O)C12OC1(CC)C(=O)c1ccccc1C2=O (centres unmarked) [Compound Q28] | 115.0
51 | CCCCC12OC1C(=O)c1ccccc1C2=O (centres unmarked) [Compound Q24] | 87.0
52 | O=C1C=CC(=O)c2c(O)cccc21 [Compound Q2] | 111.0
53 | CCOC(=O)c1ccccc1C1=C(CN(C(=O)OC(C)(C)C)C(=O)OC(C)(C)C)C(=O)c2ccccc2C1=O [Compound Q35] | 104.0
54 | O=C1C=CC(=O)c2c(O)ccc(O)c21 [Compound Q3, naphthazarin, reference compound] | 41.0
55 | CC1=CC(=O)c2ccccc2C1=O [Compound Q5, menadione, reference compound] | 58.0

Same assay, conditions: loss of GFP signal, Table 1 screen

Row | SMILES | toxicity to E. coli (in words)
56 | CC1=CC(=O)c2c(O)cccc2C1=O [Compound Q1, plumbagin, reference compound] | most toxic
57 | O=C1C=CC(=O)c2c(O)ccc(O)c21 [Compound Q3, naphthazarin, reference compound] | highly toxic
58 | CC1=CC(=O)c2ccccc2C1=O [Compound Q5, menadione, reference compound] | highly toxic

Same assay, conditions: loss of GFP signal, Table 1 screen; listed as Plumbagin

Row | SMILES | toxicity to E. coli (in words)
59 | CC1=CC(=O)c2c(O)cccc2C1=O [Compound Q1, plumbagin, reference compound] | most toxic compound to E. coli
